Source: paper PMC6302903, “Protein and Chemical Determinants of BL-1249 Action and Selectivity for K2P Channels” (ACS Chemical Neuroscience, 2018)

Experiments:
[1] = molecular target: T1, K2P2.1(TREK-1)Δ308 (Mus musculus, UniProt P97438); experiment: TEVC of C-terminal truncation at residue 308; format: cell-based; conditions: Xenopus oocytes, saturation not reached, fit with upper boundary of 15 (I/I0)
T1 construct: and at residue 308, K2P2.1(TREK-1)Δ308; expressed in transfected cells; host or cells: Xenopus laevis oocytes, mRNA injected
T1 sequence (P97438 1-308 isoform P97438-2): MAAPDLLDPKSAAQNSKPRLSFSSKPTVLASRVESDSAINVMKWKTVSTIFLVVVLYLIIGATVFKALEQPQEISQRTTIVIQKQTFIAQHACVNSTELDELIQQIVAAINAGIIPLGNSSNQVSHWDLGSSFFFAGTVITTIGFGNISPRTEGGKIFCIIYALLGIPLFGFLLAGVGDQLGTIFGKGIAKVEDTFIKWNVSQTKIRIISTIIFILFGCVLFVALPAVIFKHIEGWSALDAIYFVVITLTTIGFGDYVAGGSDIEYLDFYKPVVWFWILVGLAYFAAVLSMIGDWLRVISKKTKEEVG
Text: Constructs for murine K2P channels, including K2P2.1(TREK-1) (Gene ID 16526), K2P10.1(TREK-2) (Gene ID 72258), K2P4.1(TRAAK) (Gene ID 16528), K2P5.1(TASK-2) (Gene ID 16529), K2P3.1(TASK-1) (Gene ID 16527), K2P9.1(TASK-3) (Gene ID 223604), and K2P18.1(TRESK) (Gene ID 332396) in pGEMHE/pMO, were used for Xenopus oocyte experiments as previously described.[10],[26] Murine K2P2.1(TREK-1) (Gene ID 16526) was expressed in HEK-293 cells using a pIRES-EGFP construct as previously described.[26] Murine K2P13.1(THIK-1) (Gene ID 217826) and K2P1.1(TWIK-1) (Gene ID 16525) were cloned into pGEMHE/pMO for use in Xenopus oocytes. […]
Xenopus laevis oocytes were harvested in accordance with UCSF IACUC protocol AN129690 and digested in calcium-free ND-96 (96 mM NaCl, 2 mM KCl, 3.8 mM MgCl2) immediately following harvest, as previously described.[6],[10] […] Defolliculated stage V–VI oocytes were injected with 0.2–6.0 ng of mRNA in 50 nL, and currents were recorded 24–48 h after injection. mRNA was synthesized from plasmid DNA using mMessage mMachine Kit (T7 promoter, Ambion, Life Technologies) and purified using RNEasy Kit (Qiagen). […] Once stabilized basal currents were recorded, compounds were perfused at various concentrations in standard ND96 and currents were allowed to increase to stabilization before recording final current. […]

[2] = molecular target: T2, K2P4.1(TRAAK) M134F (Mus musculus, UniProt O88454, M134F); experiment: TEVC of K2P4.1(TRAAK) mutant M134F; format: cell-based; conditions: Xenopus oocytes, saturation not reached, fit with upper boundary of 15 (I/I0)
T2 construct: expressed in transfected cells; host or cells: Xenopus laevis oocytes, mRNA injected
T2 sequence (O88454 whole entry M134F): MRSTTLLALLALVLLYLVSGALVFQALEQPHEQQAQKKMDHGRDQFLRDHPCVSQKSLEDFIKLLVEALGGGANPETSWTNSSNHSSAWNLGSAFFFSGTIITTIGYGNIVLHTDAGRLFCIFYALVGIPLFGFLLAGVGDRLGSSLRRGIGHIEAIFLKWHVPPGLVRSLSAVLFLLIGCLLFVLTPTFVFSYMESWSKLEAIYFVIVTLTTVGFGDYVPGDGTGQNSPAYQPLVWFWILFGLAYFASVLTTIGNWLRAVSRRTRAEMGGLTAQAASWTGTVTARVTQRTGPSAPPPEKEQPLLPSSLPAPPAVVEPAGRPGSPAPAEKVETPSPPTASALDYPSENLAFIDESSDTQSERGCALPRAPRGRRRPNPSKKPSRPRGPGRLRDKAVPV
Text: To identify K2P2.1(TREK-1) M2 residues that might participate in the BL-1249 response, we mapped the residues that differ between K2P2.1(TREK-1) and K2P4.1(TRAAK) in the context of the K2P2.1(TREK-1) structure[6] (Figure 5B,C). Two K2P2.1(TREK-1) M2 residues stood out as candidates that could explain the reduction in BL-1249 response when the entire M2 helix was replaced with M2 from K2P4.1(TRAAK). One is at the M2/M4 interface and occurs between Phe172 and Arg297 via a π–cation interaction that would be lost when Phe172 is replaced with the equivalent K2P4.1(TRAAK) residue Met134 (Figure 5C, right inset). […] To assess the importance of these interactions in the context of BL-1249 response, we made the K2P2.1(TREK-1) mutants F172M and F185L and measured their responses to BL-1249 (Figure 5D). […]
Xenopus laevis oocytes were harvested in accordance with UCSF IACUC protocol AN129690 and digested in calcium-free ND-96 (96 mM NaCl, 2 mM KCl, 3.8 mM MgCl2) immediately following harvest, as previously described.[6],[10] […] Defolliculated stage V–VI oocytes were injected with 0.2–6.0 ng of mRNA in 50 nL, and currents were recorded 24–48 h after injection. mRNA was synthesized from plasmid DNA using mMessage mMachine Kit (T7 promoter, Ambion, Life Technologies) and purified using RNEasy Kit (Qiagen). […]

EC50 [1]: 35 ± 8 µM | EC50 [2]: 58 ± 34 µM
Compound: c1ccc(-c2nnn[nH]2)c(Nc2cccc3c2CCCC3)c1 [BL-1249, (5,6,7,8-tetrahydro-naphthalen-1-yl)-[2-(1H-tetrazol-5-yl)-phenyl]-amine]
